Common to all, as to type: functional, cell-based
Experiment [1] has as its system B16-F10. Description: Cytotoxic activity against B16F10 mouse melanoma cells.
The test system of experiment [2] is DA-3 cell line. Description: Cytotoxic activity against DA-3 mouse mammary adenocarcinoma cells.
Experiment [3] relates to HT-29. Description: Cytotoxic activity against HT-29 human colon adenocarcinoma cells.
The test system of experiment [4] is KB. The experiment is described as follows: Cytotoxic activity against KBV vinblastine resistant KB cells. The settings on record: Homo sapiens.
For experiment [5], the system named is KB. Description: Cytotoxic activity against Human nasopharyngeal KB cell line.
The subject of experiment [6] is KB. The experiment is described as follows: Cytotoxic activity against KB human nasopharyngeal carcinoma cells.

The structures appear in SMILES notation. Converted amounts (≈) assume the structure as drawn. A value given as a limit tells only on which side of the number the result lay.

From ChEMBL document CHEMBL1128913, “Synthesis and in vitro cytotoxicity of cryptophycins and related analogs” (Bioorg Med Chem Lett, 1996) come the findings set out here.

On to `COc1ccc(C[C@H]2NC(=O)/C=C/C[C@@H]([C@H](C)/C=C/c3ccccc3)OC(=O)[C@H](CC(C)C)OC(=O)[C@H](C)CNC2=O)cc1Cl` [CRYPTOPHYCIN 3], for which the IC50 in experiment [1] was 2 nM; in experiment [2], 1 nM; in experiment [3], 1 nM; in experiment [4], 5 nM; in experiment [5] it was 3 ng/mL (≈ 4.69 nM); in experiment [6], 2 nM.
As for `COc1ccc(C[C@H]2NC(=O)/C=C/C[C@@H]([C@H](C)[C@H]3O[C@@H]3c3ccccc3)OC(=O)[C@H](CC(C)C)OC(=O)[C@H](C)CNC2=O)cc1Cl` [CRYPTOPHYCIN A], the IC50 in experiment [1] came out at 0.03 nM; in experiment [2] it was 0.002 nM; in experiment [3] it was 0.002 nM; in experiment [4] it was 0.035 nM; in experiment [5], 0.005 ng/mL (≈ 0.00763 nM); in experiment [6], 0.004 nM.
As for `COc1ccc(C[C@H]2NC(=O)/C=C/C[C@@H]([C@](C)(O)/C=C\c3ccccc3)OC(=O)[C@H](CC(C)C)OC(=O)CCNC2=O)cc1`, the IC50 in experiment [1], in experiment [2], in experiment [3], in experiment [4] and in experiment [6] was more than 10 nM throughout.
Take `COc1ccc(C[C@H]2NC(=O)/C=C/C[C@@H](C(=O)C#Cc3ccccc3)OC(=O)[C@H](CC(C)C)OC(=O)CCNC2=O)cc1`: the IC50 in experiment [1], in experiment [2], in experiment [3], in experiment [4] and in experiment [6] was more than 10 nM each time.
For the molecule `COc1ccc(C[C@H]2NC(=O)/C=C/C[C@@H]([C@@](C)(O)C#Cc3ccccc3)OC(=O)[C@H](CC(C)C)OC(=O)CCNC2=O)cc1`, the IC50 in experiment [1], in experiment [2], in experiment [3], in experiment [4] and in experiment [6] was more than 10 nM throughout.
On to `COc1ccc(C[C@H]2NC(=O)/C=C/C[C@@H](C[C@H]3O[C@@H]3c3ccccc3)OC(=O)[C@H](CC(C)C)OC(=O)[C@H](C)CNC2=O)cc1`, for which the IC50 in experiment [1] was more than 10 nM; in experiment [2], 3 nM; in experiment [3] it was 4 nM; in experiment [4], more than 10 nM; in experiment [6], 6 nM.
As to `COc1ccc(C[C@H]2NC(=O)/C=C/C[C@@H](C(O)CCc3ccccc3)OC(=O)[C@H](CC(C)C)OC(=O)CCNC2=O)cc1` (some centres not stated), the IC50 in experiment [1], in experiment [2], in experiment [3], in experiment [4] and in experiment [6] was more than 10 nM in each case.
For the molecule `COc1ccc(C[C@H]2NC(=O)/C=C/C[C@@H](CCCc3ccccc3)OC(=O)[C@H](CC(C)C)OC(=O)CCNC2=O)cc1`, the IC50 in experiment [1], in experiment [2], in experiment [3], in experiment [4] and in experiment [6] was more than 10 nM each time.

A word on the IC50: it is the midpoint of a concentration-inhibition curve. Read a high IC50 as a need for much substance.
